{
  "source": "patent US9738605B2",
  "about": "“Hybrid compounds of curcumin and melatonin as neuroprotectants for neurodegenerative disorders” (VIRGINIA COMMONWEALTH UNIVERSITY, priority 2013, dated 2017)",
  "key": {"[1]": {"test_system": "amyloid-β oligomers (AβOs) in MC65 cells", "assay": "Western blot (6E10) of AβOs production in MC65 cells", "type": "cell-based", "details": "MC65 cells after removal of TC, 6E10 antibody", "description": "MC65 cells (4×10^5 cells/mL) were treated with indicated compounds for 30 h and then were lysed by sonication in a Tricine buffer solution and boiled for 5 min. Protein samples were collected from the supernatant after centrifugation of the samples at 12,800×g for 5 min, and then quantified using the Bradford method. Equal amounts of protein (20.0 μg) were separated by SDS-PAGE on a gel (Bio-Rad) and transferred onto a PVDF membrane (Bio-Rad). The blots were blocked with 5% milk in TBS-Tween 20 (0.1%) solution at room temperature for 1 h and then probed with the 6E10 antibody overnight at 4° C. The blots were washed twice in TB S-Tween 20 for 15 min, and then incubated with a 1:1000 dilution of horseradish peroxidase-conjugated secondary antibody in a 5% milk/PBS-Tween 20 solution at room temperature for 1 h. After washing twice in TBS-Tween 20 for 15 min, the proteins were visualized by a Western Blot Chemiluminescence Reagent (Thermo Fischer Scientific, Waltham, Mass.). The blots were also probed with antibodies against α-tubulin to ensure equal loading of proteins."}, "Aβ42 [2]": {"target": "T1, Aβ42 (Homo sapiens, UniProt P05067)", "T1 construct": "purchased American Peptide, Inc. (Sunnyvale, Calif.)", "T1 sequence (P05067 672-713 limits assumed)": "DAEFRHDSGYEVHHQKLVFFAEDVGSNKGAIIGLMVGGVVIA", "assay": "Thioflavin T assay of Aβ42 fibril formation", "type": "biochemical", "details": "up to 100 μM, 48 h, ThT", "description": "Briefly, 1 μL of each compound solution in DMSO (0.01 μM to 100 μM) was added to corresponding wells in a 96-well plate. Each concentration was prepared in independent triplicates and a solvent control was included. To each well, 9 μL of 25 μM Aβ42 in PBS (pH 7.4) was added, and then plates were incubated in dark at room temperature for 48 h. Next, 200 μL of a 5 μM ThT in 50 mM glycine solution (pH 8.0) was added to each well."}, "Aβ42 [3]": {"target": "T1, Aβ42", "assay": "AFM analysis of Aβ42 fibril and oligomer formation", "type": "biochemical", "details": "1:1 ratio with Aβ42, 24 h", "description": "Aβ42 oligomers and fibrils were prepared based on reported procedures.^43 Indicated compounds were incubated with Aβ42 at a 1:1 ratio for both conditions for 24 h. Samples were loaded on mica, washed extensively with water, and dried overnight at room temperature before AFM analysis. The morphology of the Aβ42 aggregates was assessed using an atomic force microscope (Dimension Icon, Bruker) operating in tapping mode in air. The scan rate was varied between 1 Hz and 0.5 Hz depending on the tracking quality. The silicon tips (Bruker mpp2100-100) have a sharpness of less than 5 nm and a force constant between 3 and 5 N/m along with a resonant frequency rated between […]. All images were taken with 512 points per line, with a 1:1 ratio. Images were processed using Nanoscope analysis software version 1.20 and Image-J (from the National Institutes of Health)."}, "in vitro": {"assay": "in vitro", "details": "PAMPA", "description": "In the same assay, 10 commercial drugs with known CNS penetration were also tested as positive controls, and their experimental values were compared to reported values (Table 1)."}, "APP/PS1 transgenic mice": {"test_system": "APP/PS1 transgenic mice", "assay": "Oral treatment of APP/PS1 transgenic AD mouse model", "type": "in vivo", "details": "50 mg/kg oral gavage, 12 weeks, 4 month-old APP/PS1 mice", "description": "FIG. 8A-D. AM24 (7) (50 mg/kg) oral gavage treatment in 4 month-old APP/PS1 transgenic animals during 12 weeks. Immunochemistry was performed using anti-Aβ 1-16 Clone 82E1 (1/1000, Mouse) in (A) control and (B) AM24-treated mice. Percent area of (C) Cortex (Cx) and (D) Cortex plus Hippocampus (CxHp) was measured. Statistical analysis was performed by T test *p<0.05. Experiment was assessed with APP/PS1-saline (n=4) and APP/PS1-AM24 (n=7) mice. Scale bar represents 500 μm.\nFIG. 9A-C. AM24 (7) (50 mg/kg) oral gavage treatment during 12 weeks in 4 month-old APP/PS1 transgenic animals. Immunochemistry was performed using anti-Aβ 1-16 Clone 82E1 (1/1000, Mouse) in (A) control and (B) AM24-treated mice. (C) Percent area Hippocampus (Hp) was measured. Experiment was assessed with APP/PS1-saline (n=4) and APP/PS1-AM24 (n=7) mice. […] Scale bar represents 200 μm.\nFIG. 10A-E. AM24 (7) (50 mg/kg) oral gavage treatment during 12 weeks in 4 month-old APP/PS1 transgenic animals. Immunochemistry in (A) control and (B) AM24-treated mice and (C) Western Blot were performed using anti-GFAP (1/250 and 1/2000 respectively, Rabbit). (D) Band Intensity was compared with saline treated APP/PS1 mice. (E) Percent area Hippocampus (Hp) was measured. Experiment was assessed with APP/PS1-saline (n=4) and APP/PS1-AM24 (n=7) mice. […] Scale bar represents 200 μm. […]\nFIG. 15A-B. AM24 (7) (50 mg/kg) oral gavage treatment in 4 month-old APP/PS1 transgenic animals during 12 weeks. (A) Western-blot was performed using anti-HNE (1/2000, Rabbit) stress marker. (B) Band Intensity was compared with saline treated APP/PS1 mice. Experiment was assessed with APP/PS1-saline (n=4) and APP/PS1-AM24 (n=7) mice. Statistical analysis was performed by T test ** p<0.01.\nFIG. 16A-B. AM24 (50 mg/kg) oral gavage treatment in 4 month-old APP/PS1 transgenic animals during 12 weeks. (A) Mitochondrial complex Western-blot was performed using OXPhOS cocktail antibody (1/2000, Mouse) to measure I, II, III and V Complex, and MTCO CIV for complex IV (1/2000, Mouse). (B) Band Intensity was compared with saline treated APP/PS1 mice. Experiment was assessed with APP/PS1-saline (n=4) and APP/PS1-AM24 (n=7) mice. Statistical analysis was performed by T test **p<0.01.\nAPP/PS1 (amyloid precursor protein/presenilin-1) transgenic mice are a well known model for Alzheimer's disease. In this study, APP/PS1 mice were treated with 50 mg/kg of AM24 (compound 7) and the effects on cell type/morphology and the levels of several neuroinflammatory and stress markers was observed. […] However, there was no decrease in hippocampal plaques (FIG. 9A-C). Additionally, there was no change in the expression of glial fibrillary acid protein (GFAP), a neuroinflammation marker, in the hippocampus of AM24 treated animals (FIG. 10A-E)."}},
  "note": "Entries after “also recorded” stand apart in the source; their conditions may differ.",
  "data": [
    {"smiles": "COc1ccc2[nH]cc(CCNC(=O)CC(=O)CCc3ccc(O)cc3)c2c1", "note": "[Compound 7, 5-(4-hydroxy-phenyl)-3-oxo-pentanoic acid [2-(5-methoxy-1H-indol-3-yl)-ethyl]-amide]", "values": [
      {"measurement": "effect on the production of AβOs (tetramers, pentamers, heptamers)", "setting": "[1]", "value": "moderate inhibitory effects; also recorded: dose-dependently suppressed"},
      {"measurement": "inhibition of the formation of Aβ42 fibrils", "setting": "Aβ42 [2]", "value": "no significant inhibition"},
      {"measurement": "inhibition of fibrillization and oligomerization of Aβ42 (AFM)", "setting": "Aβ42 [3]", "value": "no inhibition"},
      {"measurement": "Papp", "setting": "in vitro", "value": "7.9 ± 0.6", "unit": "×10⁻⁶ cm/s"},
      {"measurement": "NADH Dehydrogenase-Complex I (mitochondrial complex Western blot)", "setting": "APP/PS1 transgenic mice", "value": "powerful increase"},
      {"measurement": "cortical and cortex/hippocampal amyloid plaques", "setting": "APP/PS1 transgenic mice", "value": "significant decrease"},
      {"measurement": "expression of 8-Hydroxyguanosine (80HG) in the hippocampus", "setting": "APP/PS1 transgenic mice", "value": "significant decrease"},
      {"measurement": "expression of heme-oxygenase-1 (HO-1)", "setting": "APP/PS1 transgenic mice", "value": "no change"},
      {"measurement": "total number and type of glial cells (hippocampus, IBA-1)", "setting": "APP/PS1 transgenic mice", "value": "remained constant"},
      {"measurement": "expression of 4-hydroxy-2-nonenal (HNE)", "setting": "APP/PS1 transgenic mice; vs saline", "value": "significant decrease"},
      {"measurement": "expression of GFAP in the hippocampus", "setting": "APP/PS1 transgenic mice; listed as AM24", "value": "no change; also recorded: no differences were detected"},
      {"measurement": "hippocampal amyloid plaques", "setting": "APP/PS1 transgenic mice; listed as AM24", "value": "no decrease; also recorded: no differences were detected"}
    ]}
  ]
}
